The record followed here is patent publication US9850283B2, “Macrocyclic inhibitors of the PD-1/PD-L1 and CD80(B7-1)/PD-L1 protein/protein interactions” (BRISTOL-MYERS SQUIBB COMPANY, priority 2013, dated 2017).

The target of one assay is T1, Human PD-L1/PD-1 (Homo sapiens, UniProt Q9NZQ7).
T1 construct: made in house; host or cells: HEK293T
The assay is described as follows: HTRF PD-1-Ig/PD-L1-His binding assay (human PD-L1). The essentials: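 HTRF read-out: Eu cryptate anti-Ig mAb 1 nM final, APC anti-His mAb 20 nM final, added over the binding reaction. Proteins were PD-1-Ig and PD-L1-His ectodomain fusions. Buffer was dPBS, 0.1% BSA, 0.05% Tween-20.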

Assay [1] addresses T2, LK35.2-hPD-L1 cells / PE-labeled PD-1-Ig (Homo sapiens, UniProt Q9NZQ7).
T2 construct: expressed in transfected cells; host or cells: LK35.2 mouse B cell line
Description: LK35.2-hPD-L1 cell binding high-content screening assay. The assay is classed as cell-based. Put shortly:
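Fluorescent PD-1-Ig binding to PD-L1-expressing LK35.2 cells, imaged after washing. Conditions: 1 nM PE-PD-1-Ig, 37 °C, 1 h, RPMI with 10% fetal calf serum.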

The mark [2] stands for this setting: cluster symbol, read-out: HTRF IC50 cluster.
[3] abbreviates: cell binding assay, cell line not given, cluster symbol, read-out: CBA IC50 cluster.

Where two headings read alike, the source gives them in different places. Positions of bridges follow the written chain, without caps; N, C: chain ends. Non-standard residues stand in square brackets, D forms with d. Residues, ends and D or L forms follow the SMILES beside them. ξ: configuration not given here. Trp(2-Ph) = N[C@@H](Cc1c(-c2ccccc2)[nH]c2ccccc12)C(=O)O; Phe(3,4,5-F3) = N[C@@H](Cc1cc(F)c(F)c(F)c1)C(=O)O; d(cisHyp) = O=C(O)[C@H]1C[C@@H](O)CN1; Bta = N[C@@H](Cc1csc2ccccc12)C(=O)O; NMeF = CN[C@@H](Cc1ccccc1)C(=O)O; NMehSer = CN[C@@H](CCO)C(=O)O; NMeNle = CCCC[C@H](NC)C(=O)O; ξR = N=C(N)NCCCC(N)C(=O)O; NMeA = CN[C@@H](C)C(=O)O; dThz = O=C(O)[C@H]1CSCN1; ξC = NC(CS)C(=O)O; Sar = CNCC(=O)O

T1 sequence (Q9NZQ7 with tags, fused parts or gaps): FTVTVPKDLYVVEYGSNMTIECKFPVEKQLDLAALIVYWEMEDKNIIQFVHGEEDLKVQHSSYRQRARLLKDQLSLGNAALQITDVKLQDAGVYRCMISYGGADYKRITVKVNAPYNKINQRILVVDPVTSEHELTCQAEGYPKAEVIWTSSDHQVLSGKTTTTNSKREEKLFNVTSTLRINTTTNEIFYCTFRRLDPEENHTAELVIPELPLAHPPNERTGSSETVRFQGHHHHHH
T2 sequence (Q9NZQ7 19-290): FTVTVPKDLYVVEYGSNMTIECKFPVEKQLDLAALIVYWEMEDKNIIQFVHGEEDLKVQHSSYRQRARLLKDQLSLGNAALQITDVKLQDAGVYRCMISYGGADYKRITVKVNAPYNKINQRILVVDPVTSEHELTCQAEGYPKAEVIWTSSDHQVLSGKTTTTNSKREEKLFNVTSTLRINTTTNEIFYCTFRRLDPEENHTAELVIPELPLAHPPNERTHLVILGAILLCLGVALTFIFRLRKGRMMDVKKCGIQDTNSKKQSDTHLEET

As to `CCCC[C@H]1C(=O)N(C)[C@@H](CCCC)C(=O)NC(CCCNC(=N)N)C(=O)N[C@H](C(=O)NCC(N)=O)CSCC(=O)N[C@@H](Cc2ccc(O)cc2)C(=O)N(C)[C@@H](C)C(=O)N[C@@H](CC(N)=O)C(=O)N2CCC[C@H]2C(=O)N[C@@H](Cc2cnc[nH]2)C(=O)N[C@@H](CC(C)C)C(=O)N2CCC[C@H]2C(=O)N[C@@H](Cc2c[nH]c3ccccc23)C(=O)N[C@@H](CO)C(=O)N[C@@H](Cc2c(-c3ccccc3)[nH]c3ccccc23)C(=O)N1C` (some centres unmarked) [Example 7001] ({CH2CO}-Y[NMeA]NPHLPWS[Trp(2-Ph)][NMeNle][NMeNle][ξR]CG-NH2; thioether N-14), the IC50 was 0.385 to 6.74 nM on Human PD-L1/PD-1 (setting [2]) and 0.158 to 4.71 nM in assay [1] (setting [3]).
The like results for `CCCC[C@H]1C(=O)N[C@@H](CCCNC(=N)N)C(=O)NC(C(=O)NCC(N)=O)CSCC(=O)N[C@@H](Cc2ccc(O)cc2)C(=O)N(C)[C@@H](C)C(=O)N[C@@H](CC(=O)O)C(=O)N2CCC[C@H]2C(=O)N[C@@H](Cc2cnc[nH]2)C(=O)N[C@@H](CC(C)C)C(=O)N2CCC[C@H]2C(=O)N[C@@H](Cc2c[nH]c3ccccc23)C(=O)N[C@@H](CO)C(=O)N[C@@H](Cc2csc3ccccc23)C(=O)N(C)[C@@H](CCOC)C(=O)N1C` (some centres unmarked) [Example 9009] ({CH2CO}-Y[NMeA]DPHLPWS[Bta][NMehSer](Me)[NMeNle]R[ξC]G-NH2; thioether N-14) were, in that order, 6.76 to 30.3 nM and 4.78 to 72.9 nM.
Regarding `CCCC[C@H]1C(=O)N2CSC[C@@H]2C(=O)N[C@@H](CC(=O)O)C(=O)N[C@@H](C(C)C)C(=O)N(C)[C@@H](Cc2ccccc2)C(=O)N[C@@H](Cc2ccc(O)cc2)C(=O)N(C)CC(=O)N[C@@H](Cc2c[nH]c3ccccc23)C(=O)N[C@@H](Cc2ccc(O)cc2)C(=O)N[C@@H](CC(C)C)C(=O)N[C@H](C(=O)NCC(N)=O)CSCC(=O)N[C@@H](Cc2ccccc2)C(=O)N(C)[C@@H](Cc2ccccc2)C(=O)N1C` [Example 3600] ({CH2CO}-F[NMeF][NMeNle][dThz]DV[NMeF]Y[Sar]WYLCG-NH2; thioether N-13), the IC50 is 6.1 nM at Human PD-L1/PD-1 (value given instead of cluster, read-out: HTRF IC50 value) and 3.9 nM in assay [1] (cell binding assay, cell line not given, value given instead of cluster, read-out: CBA IC50 value).
As for `CCCC[C@H]1C(=O)N(C)[C@@H](C)C(=O)N[C@@H](CCCNC(=N)N)C(=O)NC(C(=O)NCC(N)=O)CSCC(=O)N[C@@H](Cc2ccc(O)cc2)C(=O)N(C)[C@@H](C)C(=O)N[C@@H](CC(N)=O)C(=O)N2CCC[C@H]2C(=O)N[C@@H](CO)C(=O)N[C@@H](CC(C)C)C(=O)N2CCC[C@H]2C(=O)N[C@@H](Cc2c[nH]c3ccccc23)C(=O)N[C@@H](CO)C(=O)N[C@@H](Cc2c[nH]c3ccccc23)C(=O)N1C` (some centres unmarked) [Example 9110] ({CH2CO}-Y[NMeA]NPSLPWSW[NMeNle][NMeA]R[ξC]G-NH2; thioether N-14), the IC50 was 0.385 to 6.74 nM at Human PD-L1/PD-1 (setting [2]) and 4.78 to 72.9 nM in assay [1] (setting [3]).
As to `CCCC[C@H]1C(=O)N2C[C@H](O)C[C@@H]2C(=O)N[C@@H](CC(=O)O)C(=O)N[C@@H](C(C)C)C(=O)N(C)[C@@H](Cc2ccccc2)C(=O)N[C@@H](Cc2ccc(O)cc2)C(=O)N2CCC[C@@H]2C(=O)N[C@@H](Cc2c[nH]c3ccccc23)C(=O)N[C@@H](Cc2ccc(O)cc2)C(=O)N[C@@H](CC(C)C)C(=O)N[C@H](C(=O)NCC(N)=O)CSCC(=O)N[C@@H](Cc2cc(F)c(F)c(F)c2)C(=O)N(C)[C@@H](Cc2ccccc2)C(=O)N1C` [Example 3183] ({CH2CO}-[Phe(3,4,5-F3)][NMeF][NMeNle][d(cisHyp)]DV[NMeF]Y[dP]WYLCG-NH2; thioether N-13), the IC50 fell in the range of 0.385 to 6.74 nM at Human PD-L1/PD-1 (setting [2]) and 0.158 to 4.71 nM in assay [1] (cluster symbol, cell line of CBA not given (LK35.2-hPD-L1 or 293T-hPD-L1), read-out: CBA IC50 cluster).
With `CCCC[C@H]1C(=O)N(C)[C@@H](COc2cccc(C)c2)C(=O)N[C@@H](CCCNC(=N)N)C(=O)N[C@H](C(=O)NCC(N)=O)CSCC(=O)N[C@@H](Cc2ccc(O)cc2)C(=O)N(C)[C@@H](C)C(=O)N[C@@H](CC(N)=O)C(=O)N2CCC[C@H]2C(=O)N[C@@H](CN)C(=O)N[C@@H](CC(C)C)C(=O)N2C[C@H](O)C[C@H]2C(=O)N[C@@H](Cc2c[nH]c3ccccc23)C(=O)N[C@@H](CO)C(=O)N[C@@H](Cc2csc3ccccc23)C(=O)N1C` [Example 5005], the IC50 was in the range of 6.76 to 30.3 nM at Human PD-L1/PD-1 (setting [2]) and 4.78 to 72.9 nM in assay [1] (setting [3]).
Turning to `CCCC[C@H]1C(=O)N(C)CC(=O)N[C@@H](CC(=O)O)C(=O)N[C@@H](C(C)C)C(=O)N(C)[C@@H](Cc2ccccc2)C(=O)N[C@@H](Cc2ccc(O)cc2)C(=O)N(C)CC(=O)N[C@@H](Cc2c[nH]c3ccccc23)C(=O)N[C@@H](Cc2ccc(O)cc2)C(=O)N[C@@H](CC(C)C)C(=O)N[C@H](C(=O)NCC(N)=O)CSCC(=O)N[C@@H](Cc2ccccc2)C(=O)N(C)[C@@H](Cc2cccc3ccccc23)C(=O)N1C` (single isomer, unassigned) [Example 3585-B], the figures for the IC50 (at Human PD-L1/PD-1 (setting [2]); in assay [1] (setting [3])) were 6.76 to 30.3 nM and 4.78 to 72.9 nM, respectively.
